Reference: ChEMBL document CHEMBL1201862, “PubChem BioAssay data set” (2004)
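Five compound concentrations were applied to cells in 96-well plates for 48 hours; endpoints were derived by simple linear interpolation of the resulting dose-response curve. GI50 is the concentration that inhibits growth by half.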 Active and inactive are the calls of the source. Rule as the data show it: active = GI50 up to about 1.1 µM and inactive = higher.

Legend:
Experiment in all cases: NCI-60 cell line screen, 48 h
[1] = system: NCI-H23
[2] = system: SF-295
[3] = system: EKVX
[4] = system: LOX IMVI
[5] = system: OVCAR-3
[6] = system: RPMI-8226
[7] = system: SF-268
[8] = system: K562
[9] = system: U-251
[10] = system: NCI-H226
[11] = system: UACC-257
[12] = system: M14
[13] = system: OVCAR-4
[14] = system: CAKI-1
[15] = system: HOP-92
[16] = system: SK-OV-3
[17] = system: A498
[18] = system: A549
[19] = system: IGROV-1
[20] = system: HL-60

Measured: GI50

O=C1CN2C(Cl)(Cl)C2(c2ccccc2)c2cc(Cl)ccc2N1CC1CC1 (stereo not drawn)
inactive: [1] 25.2 µM | [2] 9.46 µM | [3] 31.8 µM | [4] 17.3 µM | [5] 19.6 µM | [6] 37.2 µM | [7] 29.3 µM | [8] 31.5 µM | [9] 19.1 µM | [10] 21.3 µM | [11] 18.9 µM | [12] 20.1 µM | [13] 30.3 µM | [14] 23.3 µM | [15] 12.3 µM

Cc1nnc(Nc2ccc(Cl)cc2)o1
inactive: [1] > 10 µM | [2] > 10 µM | [3] > 10 µM | [4] > 10 µM | [16] > 10 µM | [17] > 10 µM | [5] > 10 µM | [7] > 10 µM | [8] > 10 µM | [9] > 10 µM | [10] > 10 µM | [18] > 10 µM | [11] > 10 µM | [12] > 10 µM | [19] > 10 µM | [13] > 10 µM | [20] > 10 µM | [14] > 10 µM

Cc1ccc(CCC(=O)C(=O)O)s1
inactive: [1] > 100 µM | [2] > 100 µM | [3] > 100 µM | [16] > 100 µM | [17] 89.5 µM | [5] > 100 µM | [6] > 100 µM | [7] > 100 µM | [8] > 100 µM | [9] 81.7 µM | [18] > 100 µM | [11] > 100 µM | [12] > 100 µM | [19] > 100 µM | [13] > 100 µM | [20] > 100 µM | [14] 30.9 µM | [15] > 100 µM

CC(C)OP(=O)(OC(C)C)c1nn(-c2ccc([N+](=O)[O-])cc2)c(=N)s1
inactive: [1] > 100 µM | [2] > 100 µM | [3] > 100 µM | [16] > 100 µM | [17] > 100 µM | [5] 77.8 µM | [6] > 100 µM | [7] > 100 µM | [8] 61.8 µM | [9] > 100 µM | [18] > 100 µM | [11] 38.1 µM | [12] > 100 µM | [19] > 100 µM | [13] > 100 µM | [20] 68.1 µM | [14] > 100 µM | [15] > 100 µM

NC1CCCCC1
inactive: [1] > 562 µM | [3] 489 µM | [4] 506 µM | [17] > 562 µM | [5] 190 µM | [6] 369 µM | [7] 508 µM | [8] 138 µM | [9] 313 µM | [18] 194 µM | [11] > 562 µM | [19] 317 µM | [13] 265 µM | [20] 135 µM | [15] 258 µM

O=C(N/N=C/C=C/c1ccccc1)[C@H](O)[C@@H](O)C(=O)N/N=C/C=C/c1ccccc1
inactive: [1] > 100 µM | [2] > 100 µM | [3] > 100 µM | [4] > 100 µM | [16] > 10 µM | [17] > 100 µM | [6] > 100 µM | [7] > 100 µM | [8] > 100 µM | [9] > 100 µM | [18] > 100 µM | [11] > 100 µM | [19] > 100 µM | [20] > 100 µM

C=CC(=O)NC(O)(C(=O)OCC)C(F)(F)F (stereo not drawn)
inactive: [1] > 100 µM | [2] > 100 µM | [3] > 100 µM | [4] > 100 µM | [16] > 100 µM | [5] > 100 µM | [6] > 100 µM | [7] > 100 µM | [8] > 100 µM | [9] > 100 µM | [10] > 100 µM | [18] > 100 µM | [11] > 100 µM | [12] > 100 µM | [19] > 100 µM | [13] > 100 µM | [20] 35 µM | [14] > 100 µM | [15] > 100 µM

O=C1CCC(c2ccccc2)=NN1c1nsc2ccccc12
inactive: [1] > 100 µM | [3] 82.6 µM | [4] > 100 µM | [5] 83.8 µM | [6] 70.1 µM | [7] > 100 µM | [8] 74 µM | [9] > 100 µM | [18] > 100 µM | [11] > 100 µM | [12] > 100 µM | [19] 97.9 µM | [13] > 100 µM | [20] > 100 µM | [15] > 100 µM

CC(SC(=S)N1CCOCC1)C(=O)Nc1nnc(-c2ccc(Cl)cc2)o1 (stereo not drawn)
inactive: [1] 50.2 µM | [4] 28.8 µM | [16] 67.3 µM | [17] 60.5 µM | [5] 25.8 µM | [6] 23.2 µM | [7] 44.3 µM | [9] 35 µM | [10] 67.8 µM | [18] 34.5 µM | [11] 46.1 µM | [12] 36 µM | [19] 33.8 µM | [13] 26.7 µM | [15] > 100 µM

Cc1cc2c(ccc[n+]2[O-])[n+]([O-])c1
inactive: [1] > 100 µM | [2] > 100 µM | [3] > 100 µM | [16] > 100 µM | [5] > 100 µM | [6] > 100 µM | [7] > 100 µM | [8] > 100 µM | [9] > 100 µM | [10] > 100 µM | [18] > 100 µM | [11] > 100 µM | [12] > 100 µM | [19] > 100 µM | [13] > 100 µM | [20] > 100 µM | [14] > 100 µM | [15] > 100 µM

COc1cc([C@@H]2c3cc4c(cc3[C@@H](c3c(O)cc(O)c5c3O[C@H](c3ccc(O)c(O)c3)[C@@H](O)C5)[C@H]3COC(=O)[C@H]23)OCO4)cc(OC)c1O
inactive: [1] > 100 µM | [2] > 100 µM | [3] > 100 µM | [4] > 100 µM | [16] > 100 µM | [17] > 100 µM | [5] > 100 µM | [6] 53 µM | [7] > 100 µM | [8] 31.7 µM | [9] > 100 µM | [18] > 100 µM | [11] > 100 µM | [12] > 100 µM | [19] > 100 µM | [13] > 100 µM | [20] 27 µM | [14] > 100 µM | [15] > 100 µM

O=C(O)c1ccc(NS(=O)(=O)Cc2ccccc2)cc1
inactive: [1] > 100 µM | [2] > 100 µM | [3] > 100 µM | [4] > 100 µM | [16] > 100 µM | [17] > 100 µM | [5] > 100 µM | [6] > 100 µM | [7] > 100 µM | [8] > 100 µM | [9] > 100 µM | [18] > 100 µM | [11] > 100 µM | [12] > 100 µM | [19] > 100 µM | [13] > 100 µM | [20] > 100 µM | [14] > 100 µM | [15] > 100 µM
